{"source": "paper PMC9413440", "about": "“An Iterative Approach Guides Discovery of the FabI Inhibitor Fabimycin, a Late-Stage Antibiotic Candidate with In Vivo Efficacy against Drug-Resistant Gram-Negative Infections” (ACS Central Science, 2022)", "key": {"[1]": {"system": "E. coli ΔtolC (JW5503)", "assay": "MIC, broth microdilution (CLSI)", "type": "cell-based, Escherichia coli", "conditions": "Escherichia coli", "procedure": "(§1) II. Materials and Methods for Biological Experiments\n(§2) S. aureus ATCC 29213 and E. coli MG1655 were obtained from the American Type Culture Collection (ATCC). E. coli BW25113 and E. coli JW5503 were obtained from the Keio Collection. AR-bank strains were obtained from the Centers for Disease Control and Prevention and FDA Antibiotic Resistance Isolate Bank.\n(§3) Antimicrobial susceptibility tests\n(§4) Susceptibility testing was performed in biological triplicate, unless noted otherwise, using the micro-dilution broth method as outlined by the Clinical and Laboratory Standards Institute. Bacteria were cultured with cation-adjusted Mueller Hinton broth (Sigma Aldrich, catalogue number: 90922). […]\n(§5) NH3: m/z 391.2 → 171.0. Fabimycin: m/z 405.3 → 145.3. Power analysis was not used to determine the number of replicates. Error bars represent the standard error of the mean of three biological replicates. All compounds evaluated in biological assays were ≥95% pure."}, "[2]": {"system": "A. baumannii AR-0299", "assay": "MIC, broth microdilution (CLSI)", "type": "cell-based", "conditions": "Acinetobacter baumannii, AR0299; A. baumannii AR-0299 clinical isolate; † = dose-independent trailing growth", "procedure": "as §1, §2, §3, §4, §5"}, "[3]": {"system": "A. baumannii AR-0033", "assay": "MIC, broth microdilution (CLSI)", "type": "cell-based", "conditions": "Acinetobacter baumannii, AR0033; A. baumannii AR-0033 clinical isolate; † = dose-independent trailing growth", "procedure": "as §1, §2, §3, §4, §5"}, "[4]": {"system": "K. pneumoniae BAA-2472", "assay": "MIC, broth microdilution (CLSI)", "type": "cell-based", "conditions": "Klebsiella pneumoniae, BAA2472", "procedure": "as §1, §2, §3, §4, §5"}, "[5]": {"system": "K. pneumoniae AR-0066", "assay": "MIC, broth microdilution (CLSI)", "type": "cell-based", "conditions": "Klebsiella pneumoniae, AR0066; K. pneumoniae AR-0066 clinical isolate", "procedure": "as §1, §2, §3, §4, §5"}, "[6]": {"system": "S. aureus ATCC 29213", "assay": "MIC, broth microdilution (CLSI)", "type": "cell-based", "conditions": "Staphylococcus aureus, ATCC29213; S. aureus 29213", "procedure": "as §1, §2, §3, §4, §5"}, "[7]": {"system": "K. pneumoniae AR-0560", "assay": "MIC, broth microdilution (CLSI)", "type": "cell-based", "conditions": "Klebsiella pneumoniae, AR0560; K. pneumoniae AR-0560 clinical isolate", "procedure": "as §1, §2, §3, §4, §5"}, "[8]": {"system": "E. coli AR-0048", "assay": "MIC, broth microdilution (CLSI)", "type": "cell-based", "conditions": "Escherichia coli, AR0048; E. coli AR-0048 clinical isolate", "procedure": "as §1, §2, §3, §4, §5"}, "[9]": {"system": "A. baumannii AR-0273", "assay": "MIC, broth microdilution (CLSI)", "type": "cell-based", "conditions": "Acinetobacter baumannii, AR0273; A. baumannii AR-0273 clinical isolate", "procedure": "as §1, §2, §3, §4, §5"}, "[10]": {"system": "E. coli MG1655", "assay": "MIC, broth microdilution (CLSI)", "type": "cell-based", "conditions": "Escherichia coli", "procedure": "as §1, §2, §3, §4, §5"}, "[11]": {"system": "E. coli AR-0085", "assay": "MIC, broth microdilution (CLSI)", "type": "cell-based", "conditions": "Escherichia coli, AR0085; E. coli AR-0085 clinical isolate", "procedure": "as §1, §2, §3, §4, §5"}, "[12]": {"system": "A. baumannii AR-0313", "assay": "MIC, broth microdilution (CLSI)", "type": "cell-based", "conditions": "Acinetobacter baumannii, AR0313; A. baumannii AR-0313 clinical isolate; † = dose-independent trailing growth", "procedure": "as §1, §2, §3, §4\n(§6) Error bars represent the standard error of the mean of three biological replicates. All compounds evaluated in biological assays were ≥95% pure."}, "[13]": {"system": "K. pneumoniae AR-0113", "assay": "MIC, broth microdilution (CLSI)", "type": "cell-based", "conditions": "Klebsiella pneumoniae, AR0113; K. pneumoniae AR-0113 clinical isolate", "procedure": "as §1, §2, §3, §4, §6"}, "[14]": {"assay": "Aqueous solubility", "type": "physicochemical"}, "[15]": {"biological_target": "A. baumannii FabI (Acinetobacter baumannii, UniProt D0CAD5)", "sequence (D0CAD5 entry or part of it)": "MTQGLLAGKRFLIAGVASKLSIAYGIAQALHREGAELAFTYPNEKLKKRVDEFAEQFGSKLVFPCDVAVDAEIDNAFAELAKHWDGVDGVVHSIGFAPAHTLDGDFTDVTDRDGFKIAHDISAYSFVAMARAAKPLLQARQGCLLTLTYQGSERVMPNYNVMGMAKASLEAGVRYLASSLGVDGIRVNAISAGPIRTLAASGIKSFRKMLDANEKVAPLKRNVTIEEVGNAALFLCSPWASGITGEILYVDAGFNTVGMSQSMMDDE", "assay": "In vitro FabI enzymatic inhibition assay", "type": "biochemical", "conditions": "AbFabI; Morrison's quadratic fit; 5 nM enzyme; read-out: Ki app", "procedure": "(§7) supplemented with 100 µg/mL ampicillin at 37°C until OD600 reached 0.6-0.7. The cells were induced with 1mM IPTG and incubated for 20 hours at 18°C and spun down at 8000 rpm for 15 minutes. Cell pellet was resuspended in the lysis buffer (50 mM Tris-HCl pH 8.0, 500 mM Na Cl, 20 mM imidazole, 10% glycerol, 0.5 mM TCEP, protease inhibitor and Lysonase) and passed through microfluidizer followed by centrifugation and filtration to remove cell debris. The clarified lysate was supplemented with 20 mM imidazole and passed over a HisTrap column (Cytiva) pre-equilibrated with the wash buffer (50 mM Tris-HCl pH 8.0, 500 mM NaCl, 20 mM imidazole, 10% glycerol, 0.5 mM TCEP). The column was washed with the wash buffer and eluted over a 20-500 mM imidazole gradient. The appropriate fractions were pooled, and the histidine tag was removed by TEV cleavage. The protein mixture was passed over a HisTrap column to separate the cleaved protein from the uncleaved ones. The cleaved protein was pooled and passed over an S75 size exclusion column (GE LifeSciences) pre-equilibrated with 50 mM Tris-HCl pH 8.0, 500 mM NaCl, 0.5 mM TCEP and 10% glycerol. Fractions containing pure protein were pooled, concentrated at 10 mg/mL and stored at -80°C. […]\n(§8) In vitro FabI enzymatic inhibition assay\n(§9) Recombinant E. coli and A. baummani FabI enzymes were used in a continuous NADH absorbance assay (20 µL in 384w format). Compounds and the Crotonyl-CoA substrate (Sigma–Aldrich 28007) were dispensed into a plate (GeinerBio-One 781101). The reaction was initiated by the addition of a reaction master mix solution containing enzyme and NADH (Sigma–Aldrich N8129) suspended in reaction buffer (50 mM HEPES pH 7.4, 150 mM NaCl, 1 mM EDTA, 0.01 mg/mL BSA, 0.01% Tween). Final concentrations were 5 nM enzyme, 150 μM Crotonyl-CoA, 380 μM NADH, 0.05% DMSO in 1x reaction buffer. After shaking for 5 seconds the reaction was monitored at NADH absorbance (340nm, 25°C) using a Molecular Devices SpectraMax M5 microplate reader. The linear portion of the progress curve was fit using plate-reader software. Percentage activity was calculated relative to DMSO only and no-substrate controls in each plate and the data were fit to Morrison’s quadratic using Graphpad Prism 9.3 to obtain apparent inhibition constant (Ki app) values. […]\n(§10) 480 Real-Time PCR System as a function of a temperature ramp (25-95°C; 0.1°/s) and the Tm was calculated using the […]"}, "[16]": {"biological_target": "T1, E. coli FabI (Escherichia coli, UniProt P0AEK4)", "T1 construct": "His(6) with TEV site (cleaved yes); made in house; host or cells: E. coli BL21(DE3)", "T1 sequence (P0AEK4 whole entry)": "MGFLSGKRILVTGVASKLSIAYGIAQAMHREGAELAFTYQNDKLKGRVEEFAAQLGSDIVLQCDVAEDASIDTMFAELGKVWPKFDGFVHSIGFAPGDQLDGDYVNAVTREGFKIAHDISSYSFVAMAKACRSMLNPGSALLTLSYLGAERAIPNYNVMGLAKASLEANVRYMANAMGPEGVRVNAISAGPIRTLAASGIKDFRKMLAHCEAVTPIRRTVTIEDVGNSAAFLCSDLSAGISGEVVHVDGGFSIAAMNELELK", "assay": "In vitro FabI enzymatic inhibition assay", "type": "biochemical", "conditions": "EcFabI; Morrison's quadratic fit; 5 nM enzyme; read-out: Ki app", "procedure": "as §7, §8, §9, §10"}}, "data": [{"smiles": "Cc1c(CN(C)C(=O)/C=C/c2cnc3c(c2)CC[C@H](NC(=O)OC(C)(C)C)C(=O)N3)oc2ccccc12", "note": "[(S)-11]", "values": [{"measurement": "MIC", "setting": "[1]", "value": 0.125, "unit": "µg/mL"}, {"measurement": "MIC", "setting": "[2]", "value": 8, "unit": "µg/mL"}, {"measurement": "MIC", "setting": "[3]", "value": 64, "unit": "µg/mL"}, {"measurement": "MIC", "setting": "[4]", "value": 32, "unit": "µg/mL"}, {"measurement": "MIC", "setting": "[5]", "value": 64, "unit": "µg/mL"}, {"measurement": "MIC", "setting": "[6]", "value": 0.016, "unit": "µg/mL"}, {"measurement": "MIC", "setting": "[7]", "value": 32, "unit": "µg/mL"}, {"measurement": "MIC", "setting": "[8]", "value": 16, "unit": "µg/mL"}, {"measurement": "MIC", "setting": "[9]", "value": 8, "unit": "µg/mL"}, {"measurement": "MIC", "setting": "[10]", "value": 8, "unit": "µg/mL"}, {"measurement": "MIC", "setting": "[11]", "value": 8, "unit": "µg/mL"}, {"measurement": "MIC", "setting": "[12]", "value": 64, "unit": "µg/mL"}, {"measurement": "MIC", "setting": "[13]", "value": 32, "unit": "µg/mL"}, {"measurement": "aqueous solubility", "setting": "[14]", "value": "limited aqueous solubility"}, {"measurement": "Ki", "setting": "[15]", "value": "947 ± 234", "unit": "nM"}, {"measurement": "Ki", "setting": "[16]", "value": "60 ± 10", "unit": "nM"}]}]}
